From PMC4582037, “Binding interaction of a novel fluorophore with serum albumins: steady state fluorescence perturbation and molecular modeling analysis” (SpringerPlus, 2015)
pKd: −log10 of the molar value.

What was measured:
[1] = biological target: T1, human serum albumin (HSA) (Homo sapiens, UniProt P02768); test: fluorescence anisotropy titration of compound […]) with protein, Langmuir isotherm fit; format: binding
T1 construct: gene ALB

[2] = biological target: T2, bovine serum albumin (BSA) (Bos taurus, UniProt P02769); test: as above; format: binding
T2 construct: gene ALB
T2 sequence (P02769 25-607): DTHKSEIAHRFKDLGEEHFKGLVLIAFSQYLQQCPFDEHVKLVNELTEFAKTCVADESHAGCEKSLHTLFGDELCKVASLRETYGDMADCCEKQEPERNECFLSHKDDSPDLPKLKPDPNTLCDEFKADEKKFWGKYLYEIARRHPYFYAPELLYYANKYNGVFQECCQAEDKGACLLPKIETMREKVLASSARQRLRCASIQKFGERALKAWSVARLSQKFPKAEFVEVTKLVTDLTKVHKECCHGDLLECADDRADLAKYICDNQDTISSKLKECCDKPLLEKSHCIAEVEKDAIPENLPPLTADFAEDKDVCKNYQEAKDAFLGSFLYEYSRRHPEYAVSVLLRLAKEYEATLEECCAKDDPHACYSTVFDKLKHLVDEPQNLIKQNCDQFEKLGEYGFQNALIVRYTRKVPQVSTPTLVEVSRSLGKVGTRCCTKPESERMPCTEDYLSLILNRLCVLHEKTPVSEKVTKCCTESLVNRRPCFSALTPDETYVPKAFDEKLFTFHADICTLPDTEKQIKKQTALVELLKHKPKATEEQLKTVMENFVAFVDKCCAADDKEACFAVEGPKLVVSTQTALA

T1 sequence (P02768 25-609): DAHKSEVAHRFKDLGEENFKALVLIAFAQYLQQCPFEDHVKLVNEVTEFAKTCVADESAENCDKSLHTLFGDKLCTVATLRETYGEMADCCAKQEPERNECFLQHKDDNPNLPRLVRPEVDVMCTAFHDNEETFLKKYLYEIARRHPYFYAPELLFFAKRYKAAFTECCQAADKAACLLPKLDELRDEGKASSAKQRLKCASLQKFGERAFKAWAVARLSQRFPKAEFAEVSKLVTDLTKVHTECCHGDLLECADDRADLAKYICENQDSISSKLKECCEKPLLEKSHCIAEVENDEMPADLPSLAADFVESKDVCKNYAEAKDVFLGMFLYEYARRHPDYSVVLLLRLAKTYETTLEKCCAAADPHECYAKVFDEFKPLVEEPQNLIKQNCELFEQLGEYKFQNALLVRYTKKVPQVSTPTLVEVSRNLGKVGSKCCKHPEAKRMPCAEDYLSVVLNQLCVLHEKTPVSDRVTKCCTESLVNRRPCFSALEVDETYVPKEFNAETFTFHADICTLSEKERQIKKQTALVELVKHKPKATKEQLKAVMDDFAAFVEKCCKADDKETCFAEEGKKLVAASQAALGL

COC(=O)CCNC(=O)c1ccc2cc(N(CC(=O)OC(C)(C)C)c3ccc(OC)cc3)ccc2c1 [compound 5, methyl 3-[(6-{[2-(tert-butoxy)-2-oxoethyl] (4-methoxyphenyl)amino}naphthalen-2-yl)formamido]propanoate]
pKd [1]: 5.69
pKd [2]: 5.71
